Laboratory results reported in patent publication US10774051B2, “6-membered heterocyclic derivatives and pharmaceutical composition comprising the same” (Shionogi & Co., Ltd., priority 2015, dated 2020).

Biological target: human P2X7 receptor (Homo sapiens, UniProt Q99572, R270H/Y155H)
Assay: Evaluation of human P2X7 receptor inhibitory activity (Yo-Pro uptake, BzATP stimulation, FLIPR TETRA)
Type: cell-based
Details: 1321N1 cells stably expressing human P2X7 receptor; BzATP stimulation, Yo-Pro uptake; read-out: IC50 (antagonistic activity for the human P2X7 receptor)
In short: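 1321N1 cells stably expressing human P2X7 (T606C/G952A SNP variant), in HBSS buffer pH 7.4-7.5 with Yo-Pro, stimulated with BzATP; compound added 8 min after agonist. Fluorescence followed for 20 min on FLIPR; max-minus-min change gave % inhibition, IC50 by logistic fit.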

| SMILES | IC50 [nM] |
| --- | --- |
| CCc1cc2c(cc1Nc1nc(=O)c(OC)cn1Cc1ccc(F)c(Cl)c1)CCC2 [Compound I-0242] | 12 |
| COc1cn(Cc2ccc(F)cc2)c(Nc2cc3c(cc2C)OCCO3)nc1=O [Compound I-0289] | 27 |
| COc1cn(Cc2ccccc2C(F)(F)F)c(Nc2cccc(Cl)c2C)nc1=O [Compound I-0294] | 250 |
| COc1cn(Cc2cccc(C(F)(F)F)c2)c(Nc2cccc(Cl)c2C)nc1=O [Compound I-0295] | 170 |
| COc1cn(Cc2ccc(C(F)(F)F)cc2)c(Nc2cccc(Cl)c2C)nc1=O [Compound I-0297] | 250 |

Same assay, conditions: 1321N1 cells stably expressing human P2X7 receptor; BzATP stimulation, Yo-Pro uptake; read-out: IC50 (antagonistic activity for the human P2X7 receptor), class symbol

| SMILES | IC50 [nM] |
| --- | --- |
| COc1cc(C)c(Nc2nc(=O)c(OC)cn2Cc2ccc(F)c(Cl)c2)cc1OC [Compound I-0229] | < 10 |
| COc1cc(C)c(Nc2nc(=O)c(OC)cn2Cc2ccc(F)c(Cl)c2)cc1C [Compound I-0230] | < 10 |
| CCOc1cc(C)c(Nc2nc(=O)c(OC)cn2Cc2ccc(F)c(Cl)c2)cc1C [Compound I-0231] | < 10 |
| COc1cn(Cc2ccc(F)c(Cl)c2)c(Nc2cc(N3CCCS3(=O)=O)ccc2C)nc1=O [Compound I-0232] | < 10 |
| COc1cn(Cc2ccccc2)c(Nc2cc(C)c(Cl)cc2C)nc1=O [Compound I-0233] | < 10 |
| COc1ccc(Nc2nc(=O)c(OC)cn2Cc2cccc(Cl)c2)c(C)c1 [Compound I-0234] | 10 to 100 |
| CCc1cc(OC)ccc1Nc1nc(=O)c(OC)cn1Cc1ccccc1 [Compound I-0235] | 10 to 100 |
| CCc1ccc(OC)cc1Nc1nc(=O)c(OC)cn1Cc1ccccc1 [Compound I-0236] | 10 to 100 |
| COc1cn(Cc2ccccc2)c(Nc2cc(C)c(OC(F)F)cc2C)nc1=O [Compound I-0237] | < 10 |
| Cc1c(Cl)cccc1NC(=O)Cc1cn(Cc2ccccc2)c(Nc2cccc(Cl)c2C)nc1=O [Compound I-0238] | 100 to 500 |
| COc1cn(Cc2ccccc2)c(Nc2cc(-n3cccc3)ccc2C)nc1=O [Compound I-0239] | 100 to 500 |
| COc1cn(Cc2ccccc2)c(Nc2cc(-c3nnco3)ccc2C)nc1=O [Compound I-0240] | 10 to 100 |
| COc1cn(Cc2ccc(F)c(Cl)c2)c(Nc2ccc(OC(F)(F)F)cc2C)nc1=O [Compound I-0241] | 10 to 100 |
| COc1cn(Cc2ccc(F)c(Cl)c2)c(Nc2cc(C)c(C)cc2C)nc1=O [Compound I-0243] | < 10 |
| COc1cn(Cc2ccc(F)c(Cl)c2)c(Nc2cc(C)c(OC(F)F)cc2C)nc1=O [Compound I-0244] | < 10 |
| CCc1cc(OC)ccc1Nc1nc(=O)c(OC)cn1Cc1ccc(F)c(Cl)c1 [Compound I-0245] | < 10 |
| CCc1ccc(OC)cc1Nc1nc(=O)c(OC)cn1Cc1ccc(F)c(Cl)c1 [Compound I-0246] | < 10 |
| COc1cn(Cc2ccc(F)c(Cl)c2)c(Nc2cc(CO)c(C)cc2C)nc1=O [Compound I-0247] | < 10 |
| COc1cn(Cc2ccc(F)c(Cl)c2)c(Nc2ccc(N(C)C)cc2C)nc1=O [Compound I-0248] | 10 to 100 |
| COc1ccc(Nc2nc(=O)c(OC)cn2Cc2cccc(F)c2)c(C)c1 [Compound I-0249] | < 10 |
| COc1cc(C)c(Nc2nc(=O)c(OC)cn2Cc2cccc(Cl)c2)cc1C [Compound I-0250] | < 10 |
| CCc1ccc(OC)cc1Nc1nc(=O)c(OC)cn1Cc1cccc(F)c1 [Compound I-0251] | 10 to 100 |
| CCc1ccccc1Nc1nc(=O)c(OC)cn1Cc1ccc(F)c(Cl)c1 [Compound I-0252] | < 10 |
| CCc1ccc(OC)cc1Nc1nc(=O)c(OC)cn1Cc1ccc(F)cc1 [Compound I-0253] | 10 to 100 |
| CCc1ccc(OC)cc1Nc1nc(=O)c(OC)cn1Cc1cccc(Cl)c1 [Compound I-0254] | 10 to 100 |

| SMILES | IC50 [nM] |
| --- | --- |
| CCc1ccc(OC)cc1Nc1nc(=O)c(OC)cn1Cc1ccc(F)c(F)c1 [Compound I-0255] | < 10 |
| CCc1cc(OC)c(OC)cc1Nc1nc(=O)c(OC)cn1Cc1ccccc1 [Compound I-0256] | < 10 |
| CCOc1cc(C)c(Nc2nc(=O)c(OC)cn2Cc2cccc(F)c2)cc1C [Compound I-0257] | < 10 |
| CCOc1cc(C)c(Nc2nc(=O)c(OC)cn2Cc2ccc(F)cc2)cc1C [Compound I-0258] | < 10 |
| CCOc1cc(C)c(Nc2nc(=O)c(OC)cn2Cc2cccc(Cl)c2)cc1C [Compound I-0259] | < 10 |
| CCOc1cc(C)c(Nc2nc(=O)c(OC)cn2Cc2ccc(F)c(F)c2)cc1C [Compound I-0260] | < 10 |
| CCc1cc(OC)ccc1Nc1nc(=O)c(OC)cn1Cc1cccc(F)c1 [Compound I-0261] | < 10 |
| CCc1cc(OC)ccc1Nc1nc(=O)c(OC)cn1Cc1ccc(F)cc1 [Compound I-0262] | < 10 |
| CCc1cc(OC)ccc1Nc1nc(=O)c(OC)cn1Cc1cccc(Cl)c1 [Compound I-0263] | < 10 |
| CCc1cc(OC)ccc1Nc1nc(=O)c(OC)cn1Cc1ccc(F)c(F)c1 [Compound I-0264] | < 10 |
| CCc1cc(C)c(C)cc1Nc1nc(=O)c(OC)cn1Cc1ccccc1 [Compound I-0265] | < 10 |
| CCc1cc(OC)c(OC)cc1Nc1nc(=O)c(F)cn1Cc1ccccc1 [Compound I-0266] | < 10 |
| CCc1cc(OC)c(OC)cc1Nc1nc(=O)c(F)cn1Cc1ccc(F)cc1 [Compound I-0267] | < 10 |
| CCc1cc(OC)c(OC)cc1Nc1nc(=O)c(F)cn1Cc1ccc(F)c(Cl)c1 [Compound I-0268] | < 10 |
| CCc1cc(OC)c(OC)cc1Nc1nc(=O)c(OC)cn1Cc1cccc(F)c1 [Compound I-0269] | < 10 |
| CCc1cc(OC)c(OC)cc1Nc1nc(=O)c(OC)cn1Cc1ccc(F)cc1 [Compound I-0270] | < 10 |
| CCc1cc(OC)c(OC)cc1Nc1nc(=O)c(OC)cn1Cc1cccc(Cl)c1 [Compound I-0271] | < 10 |
| CCc1cc(OC)c(OC)cc1Nc1nc(=O)c(OC)cn1Cc1ccc(F)c(F)c1 [Compound I-0272] | < 10 |
| CCc1cc(OC)c(OC)cc1Nc1nc(=O)c(OC)cn1Cc1ccc(F)c(Cl)c1 [Compound I-0273] | < 10 |
| COc1cc(C)c(Nc2nc(=O)c(OC)cn2Cc2cccc(F)c2)cc1OC [Compound I-0274] | < 10 |
| COc1cc(C)c(Nc2nc(=O)c(OC)cn2Cc2ccc(F)cc2)cc1OC [Compound I-0275] | 10 to 100 |
| COc1cc(C)c(Nc2nc(=O)c(OC)cn2Cc2ccc(F)c(F)c2)cc1OC [Compound I-0276] | 10 to 100 |
| COc1cn(Cc2ccc(F)c(F)c2)c(Nc2cc(C)c(C)cc2C)nc1=O [Compound I-0277] | < 10 |
| COc1cn(Cc2ccccc2)c(Nc2cc(CO)c(C)cc2C)nc1=O [Compound I-0278] | < 10 |
| COc1cn(Cc2ccc(F)c(F)c2)c(Nc2cc(C)c(Cl)cc2C)nc1=O [Compound I-0279] | < 10 |

| SMILES | IC50 [nM] |
| --- | --- |
| COc1cn(Cc2ccc(Cl)c(F)c2)c(Nc2cccc(Cl)c2C)nc1=O [Compound I-0280] | 10 to 100 |
| COc1cc(C)cc(Nc2nc(=O)c(OC)cn2Cc2ccccc2)c1C [Compound I-0281] | < 10 |
| COc1cc(C)c(Nc2nc(=O)c(OC)cn2Cc2ccc(F)cc2)cc1C [Compound I-0282] | < 10 |
| COc1cc(C)c(Nc2nc(=O)c(OC)cn2Cc2ccc(F)c(F)c2)cc1C [Compound I-0283] | < 10 |
| Cc1cc(C)c(Nc2nc(=O)c(C(=O)NCc3ccccc3)cn2Cc2ccccc2)cc1C [Compound I-0284] | 500 to 1000 |
| COc1cn(Cc2cc(F)cc(Cl)c2)c(Nc2cccc(Cl)c2C)nc1=O [Compound I-0285] | 10 to 100 |
| COc1cn(Cc2cccc(F)c2F)c(Nc2cccc(Cl)c2C)nc1=O [Compound I-0286] | 10 to 100 |
| COc1cn(Cc2ccccc2)c(Nc2cc3c(cc2C)OCCO3)nc1=O [Compound I-0287] | 10 to 100 |
| COc1cn(Cc2cccc(F)c2)c(Nc2cc3c(cc2C)OCCO3)nc1=O [Compound I-0288] | 10 to 100 |
| COc1cn(Cc2cccc(Cl)c2)c(Nc2cc3c(cc2C)OCCO3)nc1=O [Compound I-0290] | 10 to 100 |
| COc1cn(Cc2ccc(F)c(F)c2)c(Nc2cc3c(cc2C)OCCO3)nc1=O [Compound I-0291] | 10 to 100 |
| COc1cn(Cc2ccc(F)c(Cl)c2)c(Nc2cc3c(cc2C)OCCO3)nc1=O [Compound I-0292] | 10 to 100 |
| COc1cn(Cc2ccc(Cl)c(F)c2)c(Nc2cc3c(cc2C)OCCO3)nc1=O [Compound I-0293] | 10 to 100 |
| COc1cn(Cc2ccc(Cl)c(Cl)c2)c(Nc2cccc(Cl)c2C)nc1=O [Compound I-0296] | 10 to 100 |
| COc1cn(Cc2ccccc2)c(Nc2cc(C)cc(C)c2C)nc1=O [Compound I-0298] | 10 to 100 |
| COc1cn(Cc2cccc(Cl)c2)c(Nc2cc(C)c(OC(F)F)cc2C)nc1=O [Compound I-0299] | 10 to 100 |
| COc1cn(Cc2cccc(F)c2)c(Nc2cc(C)c(OC(F)F)cc2C)nc1=O [Compound I-0300] | < 10 |
| COc1cn(Cc2ccc(F)cc2)c(Nc2cc(C)c(OC(F)F)cc2C)nc1=O [Compound I-0301] | < 10 |
| COc1cn(Cc2ccc(F)c(F)c2)c(Nc2cc(C)c(OC(F)F)cc2C)nc1=O [Compound I-0302] | < 10 |
| COc1cn(Cc2ccccc2OC(F)(F)F)c(Nc2cccc(Cl)c2C)nc1=O [Compound I-0303] | 100 to 500 |
| COc1cn(Cc2cccc(OC(F)(F)F)c2)c(Nc2cccc(Cl)c2C)nc1=O [Compound I-0304] | 500 to 1000 |
| Cc1cc(C)c(Nc2nc(=O)c(F)cn2Cc2ccc(F)cc2)cc1C [Compound I-0306] | < 10 |
| Cc1cc(C)c(Nc2nc(=O)c(Cl)cn2Cc2ccccc2)cc1C [Compound I-0307] | < 10 |
| COc1cc(C)c(Nc2nc(=O)c(F)cn2Cc2cccc(Cl)c2)cc1OC [Compound I-0308] | < 10 |
| COc1cc(C)c(Nc2nc(=O)c(F)cn2Cc2ccc(F)c(Cl)c2)cc1OC [Compound I-0309] | < 10 |
